“And” between values parts separate entries of the source, which are not always exact repeats. Identical values can stand only once. Toxic doses and inconclusive results are not listed.
Tested on: P388 leukemia ip, CD2F1 mice, survival T/C
Experiment: NCI In Vivo Anticancer Drug Screen. Data for tumor model P388 Leukemia (intraperitoneal) in CD2F1 (CDF1) mice
Conditions: endpoint: median survival time, higher = longer survival
Method in brief: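 Mice carrying the transplanted tumor received test compound or vehicle. Survival was recorded in each group, and the value is the treated-group measurement divided by that of the vehicle-treated control group.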

[1] = dose: 100.0 mg/kg/injection, schedule: Q01DX001 (ip), vehicle: saline with Tween-80
[2] = dose: 200.0 mg/kg/injection, schedule: Q01DX001 (ip), vehicle: saline with Tween-80
[3] = dose: 400.0 mg/kg/injection, schedule: Q01DX001 (ip), vehicle: saline with Tween-80
[4] = dose: 100.0 mg/kg/injection, schedule: Q04DX003 (ip), vehicle: Klucel (hydroxypropylcellulose) (HPC)
[5] = dose: 200.0 mg/kg/injection, schedule: Q04DX003 (ip), vehicle: Klucel (hydroxypropylcellulose) (HPC)
[6] = dose: 400.0 mg/kg/injection, schedule: Q04DX003 (ip), vehicle: Klucel (hydroxypropylcellulose) (HPC)
[7] = dose: 60.0 mg/kg/injection, schedule: Q01DX005 (ip), vehicle: saline with Tween-80
[8] = dose: 120.0 mg/kg/injection, schedule: Q01DX005 (ip), vehicle: saline with Tween-80
[9] = dose: 240.0 mg/kg/injection, schedule: Q01DX005 (ip), vehicle: saline with Tween-80
[10] = dose: 50.0 mg/kg/injection, schedule: Q01DX009 (ip), vehicle: saline with Tween-80
[11] = dose: 50.0 mg/kg/injection, schedule: Q01DX005 (ip), vehicle: saline with Tween-80
[12] = dose: 100.0 mg/kg/injection, schedule: Q01DX005 (ip), vehicle: saline with Tween-80
[13] = dose: 200.0 mg/kg/injection, schedule: Q01DX005 (ip), vehicle: saline with Tween-80

For `COc1cc(C)c(/C(=N/O)n2nnc(-c3ccc(Cl)cc3)n2)c(C)c1`, the T/C [1] was 123 % of control, the T/C [2] was 114 % of control and the T/C [3] was 95 % of control.

With `CCN(CC)Cc1c(C)[nH]c2ccc3c(c2c1=O)Oc1ccccc1O3` the T/C (dose: 100.0 mg/kg/injection, schedule: Q04DX002 (ip), vehicle: Klucel (hydroxypropylcellulose) (HPC)) was 100 % of control, the T/C (dose: 200.0 mg/kg/injection, schedule: Q04DX002 (ip), vehicle: Klucel (hydroxypropylcellulose) (HPC)) was 100 % of control and the T/C (dose: 400.0 mg/kg/injection, schedule: Q04DX002 (ip), vehicle: Klucel (hydroxypropylcellulose) (HPC)) was 100 % of control.

`Cc1ccc(S(=O)(=O)OCOS(=O)(=O)c2ccc(C)cc2)cc1` was tested, and the T/C (dose: 25.0 mg/kg/injection, schedule: Q01DX009 (ip), vehicle: Klucel (hydroxypropylcellulose) (HPC)) was 101 % of control, the T/C (dose: 50.0 mg/kg/injection, schedule: Q01DX009 (ip), vehicle: Klucel (hydroxypropylcellulose) (HPC)) was 120 % of control and 121 % of control and the T/C (dose: 100.0 mg/kg/injection, schedule: Q01DX009 (ip), vehicle: Klucel (hydroxypropylcellulose) (HPC)) was 122 % of control. The T/C (dose: 200.0 mg/kg/injection, schedule: Q01DX009 (ip), vehicle: Klucel (hydroxypropylcellulose) (HPC)) was 123 % of control and the T/C (dose: 400.0 mg/kg/injection, schedule: Q01DX009 (ip), vehicle: Klucel (hydroxypropylcellulose) (HPC)) was 160 % of control.

In the case of `C/C=C(\C)C(=O)OC1C2C(C)=CC(=O)C(O)C2(C)C2C3(O)OCC24C1OC(=O)C(OC(C)=O)C4C(C)C3O` (centres undefined), the T/C (dose: 2.5 mg/kg/injection, schedule: Q01DX009 (ip), vehicle: saline) is reported as 155 % of control and the T/C (dose: 5.0 mg/kg/injection, schedule: Q01DX009 (ip), vehicle: saline) is reported as 163 % of control.

In the case of `CN(C)Cc1cc2c(=O)[nH]c(N)nc2[nH]1`, the T/C (dose: 100.0 mg/kg/injection, schedule: Q01DX001 (ip), vehicle: Klucel (hydroxypropylcellulose) (HPC)) is reported as 101 % of control and the T/C (dose: 200.0 mg/kg/injection, schedule: Q01DX001 (ip), vehicle: Klucel (hydroxypropylcellulose) (HPC)) is reported as 104 % of control.

In the case of `COC(=O)/C=C(\O)C(Cc1cc(OC)c2c(c1O)C(=O)c1c(OC)cccc1C2=O)C(=O)OC` (centres undefined), the T/C [1] is reported as 101 % of control, the T/C [2] is reported as 102 % of control and the T/C [3] is reported as 97 % of control.

For `COC(=O)C1=C(C(=O)OC)C2(C)C=CC1C1C(OC(C)=O)C(OC(C)=O)C12` (centres undefined), the T/C [4] was 105 % of control, the T/C [5] was 108 % of control and the T/C [6] was 107 % of control.

In the case of `Cc1cncn2c(C)nnc12`, the T/C (dose: 100.0 mg/kg/injection, schedule: Q04DX003 (ip), vehicle: saline) is reported as 100 % of control and the T/C (dose: 200.0 mg/kg/injection, schedule: Q04DX003 (ip), vehicle: saline) is reported as 104 % of control.

In the case of `Cc1ccc(-c2nnc(N)o2)cc1`, the T/C [7] is reported as 100 % of control, the T/C [8] is reported as 100 % of control and the T/C [9] is reported as 99 % of control.

With `CCOc1ccc(-n2c(=O)c(N=Nc3ccccc3C)c(O)n(-c3ccc(Br)cc3)c2=S)cc1` the T/C [1] was 98 % of control, the T/C [2] was 92 % of control and the T/C [3] was 105 % of control.

With `CCOC(=O)CC(=O)N(c1ccc(OC)cc1)C(C(=O)OC)c1ccccc1` (centres undefined) the T/C [7] was 101 % of control, the T/C [8] was 104 % of control and the T/C [9] was 104 % of control.

With `Cc1ccc(-c2c3c(c(-c4ccc(C)cc4)c(-c4ccccc4)c2-c2ccccc2)-c2ccccc2C3)cc1` the T/C (dose: 12.5 mg/kg/injection, schedule: Q01DX009 (ip), vehicle: saline with Tween-80) was 98 % of control, the T/C (dose: 25.0 mg/kg/injection, schedule: Q01DX009 (ip), vehicle: saline with Tween-80) was 98 % of control and the T/C [10] was 99 % of control and 89 % of control.

With `Cc1ccc(Nc2ncnc3c2c(=O)n(C)c(=O)n3C)cc1C` the T/C (dose: 12.5 mg/kg/injection, schedule: Q01DX005 (ip), vehicle: saline with Tween-80) was 100 % of control, the T/C (dose: 25.0 mg/kg/injection, schedule: Q01DX005 (ip), vehicle: saline with Tween-80) was 100 % of control and the T/C [11] was 86 % of control and 91 % of control. The T/C [12] was 88 % of control and the T/C [13] was 96 % of control.

In the case of `Nc1cccc(C(=O)NCCNC(=O)c2cccc(N)c2O)c1O`, the T/C (dose: 50.0 mg/kg/injection, schedule: Q01DX005 (ip), vehicle: Klucel (hydroxypropylcellulose) (HPC)) is reported as 98 % of control, the T/C (dose: 100.0 mg/kg/injection, schedule: Q01DX005 (ip), vehicle: Klucel (hydroxypropylcellulose) (HPC)) is reported as 97 % of control and the T/C (dose: 200.0 mg/kg/injection, schedule: Q01DX005 (ip), vehicle: Klucel (hydroxypropylcellulose) (HPC)) is reported as 95 % of control.

For `O=C1c2ccccc2C(=O)c2c(OCCOCCO)cccc21`, the T/C [11] was 118 % of control, the T/C [12] was 112 % of control and the T/C [13] was 96 % of control.

In the case of `CN=C(N)NN=C(c1ccc(Br)cc1)c1ccc(Br)cc1`, the T/C (dose: 25.0 mg/kg/injection, schedule: Q04DX002 (ip), vehicle: saline with Tween-80) is reported as 100 % of control and 106 % of control and the T/C (dose: 50.0 mg/kg/injection, schedule: Q04DX002 (ip), vehicle: saline with Tween-80) is reported as 103 % of control and 124 % of control.

With `COc1ccc(/C(=N/N)c2ccccc2)cc1` the T/C [4] was 100 % of control and the T/C [5] was 114 % of control.

With `Nc1ccccc1SC1CC(=O)N(c2ccccc2Cl)C1=O` (centres undefined) the T/C [10] was 90 % of control, the T/C (dose: 100.0 mg/kg/injection, schedule: Q01DX009 (ip), vehicle: saline with Tween-80) was 90 % of control and 95 % of control and the T/C (dose: 100.0 mg/kg/injection, schedule: Q04DX003 (ip), vehicle: saline with Tween-80) was 90 % of control. The T/C (dose: 200.0 mg/kg/injection, schedule: Q01DX009 (ip), vehicle: saline with Tween-80) was 95 % of control, the T/C (dose: 200.0 mg/kg/injection, schedule: Q04DX003 (ip), vehicle: saline with Tween-80) was 90 % of control and the T/C (dose: 400.0 mg/kg/injection, schedule: Q04DX003 (ip), vehicle: saline with Tween-80) was 95 % of control.

For `Cc1csc([NH-])n1.Cc1csc([NH-])n1.[Cl][Pt+2][Cl]`, the T/C (dose: 100.0 mg/kg/injection, schedule: Q01DX001 (sc), vehicle: olive oil, sesame oil, peanut oil) was 104 % of control, the T/C (dose: 200.0 mg/kg/injection, schedule: Q01DX001 (sc), vehicle: olive oil, sesame oil, peanut oil) was 107 % of control and the T/C (dose: 400.0 mg/kg/injection, schedule: Q01DX001 (sc), vehicle: olive oil, sesame oil, peanut oil) was 104 % of control.

With `N=C1OC(C(Cl)(Cl)Cl)N(c2cccc(F)c2)C1=O` (centres undefined) the T/C (dose: 60.0 mg/kg/injection, schedule: Q01DX005 (ip), vehicle: Klucel + Tween-80) was 100 % of control, the T/C (dose: 120.0 mg/kg/injection, schedule: Q01DX005 (ip), vehicle: Klucel + Tween-80) was 100 % of control and the T/C (dose: 240.0 mg/kg/injection, schedule: Q01DX005 (ip), vehicle: Klucel + Tween-80) was 89 % of control.

In the case of `O=c1c2cocc2c(O)c2n1Cc1cc3ccccc3nc1-2`, the T/C (dose: 50.0 mg/kg/injection, schedule: Q01DX001 (ip), vehicle: saline with Tween-80) is reported as 100 % of control and 101 % of control, the T/C [1] is reported as 99 % of control and 110 % of control and 120 % of control and the T/C [2] is reported as 99 % of control and 110 % of control and 120 % of control. For the same compound, the T/C [3] was 100 % of control and 102 % of control and 112 % of control.

`C#CCOc1c(Cl)cc(Cl)c2ccccc12` was tested, and the T/C [4] was 100 % of control, the T/C [5] was 93 % of control and the T/C [6] was 93 % of control.

With `Cc1ccc(C(O)(CNC2CCCCC2)c2ccccc2)cc1` (centres undefined) the T/C (dose: 25.0 mg/kg/injection, schedule: Q01DX009 (ip), vehicle: saline sonified) was 104 % of control and the T/C (dose: 50.0 mg/kg/injection, schedule: Q01DX009 (ip), vehicle: saline sonified) was 104 % of control.

With `C=Cc1cncc2c1CCOC2=O` the T/C (dose: 3.75 mg/kg/injection, schedule: Q01DX005 (ip), vehicle: Klucel (hydroxypropylcellulose) (HPC)) was 86 % of control, the T/C (dose: 7.5 mg/kg/injection, schedule: Q01DX005 (ip), vehicle: Klucel (hydroxypropylcellulose) (HPC)) was 93 % of control and the T/C (dose: 30.0 mg/kg/injection, schedule: Q01DX005 (ip), vehicle: Klucel (hydroxypropylcellulose) (HPC)) was 86 % of control.
